Test results as given in article PMC9626498 (Scientific Reports, 2022).

Legend:
[1] = target: acetylcholinesterase (AChE) (Electrophorus electricus, UniProt O42275); assay: modified Ellman spectrophotometric assay; type: biochemical
[2] = target: butyrylcholinesterase (BChE) (Equus caballus, UniProt P81908); assay: modified Ellman spectrophotometric assay; type: biochemical
Chain of butyrylcholinesterase (BChE) (P81908 whole entry): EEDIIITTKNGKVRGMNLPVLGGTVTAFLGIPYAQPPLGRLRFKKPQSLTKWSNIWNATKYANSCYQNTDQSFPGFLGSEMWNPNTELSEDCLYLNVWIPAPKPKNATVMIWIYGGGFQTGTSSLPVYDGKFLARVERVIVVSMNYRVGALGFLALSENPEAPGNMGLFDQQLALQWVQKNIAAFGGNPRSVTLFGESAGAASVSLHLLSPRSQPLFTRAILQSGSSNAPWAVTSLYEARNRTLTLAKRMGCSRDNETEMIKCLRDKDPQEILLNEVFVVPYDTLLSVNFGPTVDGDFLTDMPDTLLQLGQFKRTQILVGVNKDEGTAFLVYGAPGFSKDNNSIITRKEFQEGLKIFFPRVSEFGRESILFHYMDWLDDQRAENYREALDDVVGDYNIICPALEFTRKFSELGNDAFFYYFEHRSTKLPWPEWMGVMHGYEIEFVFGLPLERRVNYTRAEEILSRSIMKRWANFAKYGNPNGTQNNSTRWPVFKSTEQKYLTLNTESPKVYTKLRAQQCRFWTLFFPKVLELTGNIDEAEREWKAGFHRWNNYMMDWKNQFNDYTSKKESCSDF

Chain of acetylcholinesterase (AChE) (O42275 24-633): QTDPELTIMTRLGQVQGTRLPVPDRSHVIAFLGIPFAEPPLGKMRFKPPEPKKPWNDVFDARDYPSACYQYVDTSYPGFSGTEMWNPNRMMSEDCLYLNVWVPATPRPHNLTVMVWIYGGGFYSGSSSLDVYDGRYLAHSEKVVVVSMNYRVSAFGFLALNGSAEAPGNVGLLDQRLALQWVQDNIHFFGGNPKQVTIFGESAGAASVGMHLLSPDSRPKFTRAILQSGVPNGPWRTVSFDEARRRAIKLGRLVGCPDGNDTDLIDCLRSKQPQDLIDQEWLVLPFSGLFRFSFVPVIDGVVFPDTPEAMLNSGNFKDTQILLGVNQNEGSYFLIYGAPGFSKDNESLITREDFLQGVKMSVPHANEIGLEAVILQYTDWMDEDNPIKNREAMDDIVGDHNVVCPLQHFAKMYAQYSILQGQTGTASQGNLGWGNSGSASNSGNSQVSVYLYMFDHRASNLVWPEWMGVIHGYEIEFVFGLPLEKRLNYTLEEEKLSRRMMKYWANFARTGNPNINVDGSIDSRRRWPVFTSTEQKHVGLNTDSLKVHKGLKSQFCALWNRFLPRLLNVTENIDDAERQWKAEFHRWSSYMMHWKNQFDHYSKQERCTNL

## C[C@@H]1O[C@@H](O[C@H]2C(=O)c3c(O)cc(O)cc3O[C@@H]2c2cc(O)c(O)c(O)c2)[C@H](O)[C@H](O)[C@H]1O [compound 1, dihydromyricetin 3-O-rhamnoside]
[1]
  IC50: 70 ± 8 µM
[2]
  IC50: 71 ± 4 µM
